The numbers were not newly measured in article PMC11979273, “A phase I study to evaluate the safety, tolerability, and pharmacokinetics of HEC113995PA·H2O, a novel dual-acting serotonergic antidepressant, in healthy subjects” (Frontiers in Pharmacology, 2025), which cites them from elsewhere.

As usually defined, the Cmax is the maximum level reached in the sampled fluid or tissue.

For the data set the following is noted: cited from earlier work.

As to `N#Cc1ccc2[nH]cc(CCCCN3CCN(c4ccc5oc(C(N)=O)cc5c4)CC3)c2c1` [Vilazodone], where the note is “20 mg dose”, the “AUC0-∞” value is 502 ng·h/mL and the Cmax was 28.5 ng/mL. Further, where the note is “in vivo”, the “Tmax (peak)” value was 5 h and the t1/2 is listed as 24.1 h.
